The record followed here is ChEMBL document CHEMBL2203051, “Synthesis of new opioid derivatives with a propellane skeleton and their pharmacologies: part 3, novel propellane derivatives with pentacyclic skeletons” (Bioorg Med Chem Lett, 2012).

pKi: −log10 of the molar value.

As usually defined, the pKi is −log10 of the Ki, conventionally taken in molar units. A higher pKi goes with a low Ki.

The species entered for one experiment is Mus musculus. The experiment in a line: Selectivity ratio of Ki for delta opioid receptor mouse whole brain without cerebellum to Ki for kappa opioid receptor in mouse whole brain without cerebellum.
A short description of experiment [1]: Selectivity ratio of Ki for mu opioid receptor in […] to Ki for kappa opioid receptor in mouse whole brain without cerebellum.
Experiment [2] addresses Kappa-type opioid receptor (Mus musculus, UniProt P33534). The experiment is described as follows: Displacement of [3H]U-69,593 from kappa opioid receptor in mouse whole brain without cerebellum.
The target of experiment [3] is Delta-type opioid receptor (Mus musculus, UniProt P32300). The experiment is described as follows: Displacement of [3H][…] from delta opioid receptor in mouse whole brain without cerebellum. For orientation: Loss of bound radioactivity is the signal in a displacement assay; it reports binding, not function.
Sequence of Delta-type opioid receptor (P32300 whole entry): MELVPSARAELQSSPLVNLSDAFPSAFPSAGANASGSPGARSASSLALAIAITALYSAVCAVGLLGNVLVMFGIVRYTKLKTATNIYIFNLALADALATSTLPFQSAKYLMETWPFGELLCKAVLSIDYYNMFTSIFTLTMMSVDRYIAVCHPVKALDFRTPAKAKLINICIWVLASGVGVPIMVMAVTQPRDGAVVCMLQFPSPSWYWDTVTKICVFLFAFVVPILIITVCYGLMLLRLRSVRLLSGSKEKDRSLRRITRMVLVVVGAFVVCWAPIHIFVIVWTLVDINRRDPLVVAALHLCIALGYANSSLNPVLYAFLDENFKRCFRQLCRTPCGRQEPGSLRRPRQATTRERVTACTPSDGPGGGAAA
For the next experiment, the target named is Mu-type opioid receptor (Cavia porcellus, UniProt P97266). The experiment in a line: Displacement of [3H]DAMGO from mu opioid receptor in […].
Sequence of Mu-type opioid receptor (P97266 whole entry): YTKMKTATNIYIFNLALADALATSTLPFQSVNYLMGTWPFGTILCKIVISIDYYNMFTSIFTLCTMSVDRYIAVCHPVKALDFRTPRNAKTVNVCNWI

Sequence of Kappa-type opioid receptor (P33534 whole entry): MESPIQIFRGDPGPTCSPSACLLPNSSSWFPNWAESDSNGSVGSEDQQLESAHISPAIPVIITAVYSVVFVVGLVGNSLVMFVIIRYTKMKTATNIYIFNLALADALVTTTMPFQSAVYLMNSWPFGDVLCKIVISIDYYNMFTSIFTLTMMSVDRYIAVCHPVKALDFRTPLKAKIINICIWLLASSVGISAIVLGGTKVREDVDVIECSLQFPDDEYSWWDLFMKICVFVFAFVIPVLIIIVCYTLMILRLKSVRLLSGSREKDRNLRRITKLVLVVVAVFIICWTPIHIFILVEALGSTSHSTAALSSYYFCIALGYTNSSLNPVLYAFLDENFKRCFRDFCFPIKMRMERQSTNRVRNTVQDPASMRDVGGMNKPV

Regarding `O=C1CC2N(CC3CC3)CCC34CC(=O)C1CC23Cc1ccc(O)cc14` (stereo not given), the Ratio Ki in the experiment filed under Mus musculus is 7.26; in experiment [1] it was 3.31. For the same compound, the figures for the pKi (in experiment [2]; in experiment [3]; at Mu-type opioid receptor) were 7.25, 6.39 and 6.73, respectively.
For `O=C1CC23CCN(CC4CC4)C4C[C@H](O)C1CC42Cc1ccc(O)cc13` (stereo not given in full) the same measures were 8.72, 4.22, 7.78, 6.84 and 7.15.
Taken in the same sequence, the figures for `O=C1CC23CCN(CC4CC4)C4CCC1CC42Cc1ccc(O)cc13` (stereo not given) were 52, 3.82, 9.08, 7.36 and 8.49.
As to `O=C1CC23CCN(CC4CC4)C4C[C@@H](O)C1CC42Cc1ccc(O)cc13` (stereo not given in full), the values for the Ratio Ki (in the experiment filed under Mus musculus; in experiment [1]) were 8.9 and 1.72, respectively. Besides, the results for the pKi (in experiment [2]; in experiment [3]; at Mu-type opioid receptor) were 8.12, 7.17 and 7.88, respectively.
With `O=C1CC23CCN(CC4CC4)C4C=CC1CC42Cc1ccc(O)cc13` (stereo not given), the Ratio Ki turned out to be 27.2 in the experiment filed under Mus musculus and 9.17 in experiment [1]. Moreover, the pKi in experiment [2] is 8.72; in experiment [3], 7.28; on Mu-type opioid receptor it was 7.75.
